Tests used:
[1] = tested on: PR-1a/T7 polymerase x plastid T7/GUS plants (pPH110X6b x 4276P); experiment: GUS activity in leaf extracts of plants sprayed with BTH (fluorometric MUG assay); format: in vivo, Nicotiana tabacum
Description: (§1) The N. tabacum ‘Xanthi’ plastid transformant line 4276P described by McBride et al. ((1994) PNAS 91: 7301-7305) was pollinated by homozygous NT-110X6b5 plants containing the PR-1a/T7 RNA polymerase. 4276P differs from pC8 only with respect to (a) the promoter used to express the aadA selectable marker (which has the 16S ribosomal RNA gene promoter rather than the psbA gene promoter used in pC8), (b) the presence of a psbA gene 3′ untranslated region between the GUS gene and the T7 terminator, and (c) the absence of a lac operator and duplicated StuI restriction site sequence in the T7 promoter. F1 plants from this cross heterozygous for the PR-1a/T7 polymerase nuclear expression cassette and homoplastidic for the T7/GUS plastid expression cassette were germinated in soil. Upon reaching a height of 20 to 40 cm the plants were sprayed with either an inert wettable powder suspension or a formulation of the inducer compound BTH with wettable powder. Control untransformed N. tabacum ‘Xanthi’, NT-110X6b-5, and 4276P plants germinated in soil at the same time were sprayed in a similar manner. Plant material (one leaf from each of three independent plants of each genotype) was harvested just prior to spraying and at 8 hours and 1, 2, 3, 7, and 28 days following spraying, and flash frozen as described above.
Frozen leaf tissue was ground in a mortar with a pestle in the presence of liquid nitrogen to produce a fine powder. Leaf extracts were prepared in GUS extraction buffer (50 mM sodium phosphate pH7.0, 0.1% Triton-X 100, 0.1% sarkosyl, 10 mM β-mercaptoethanol) as described by Jefferson, R. A. et al. (1986), PNAS USA 83, 8447-8451. The reactions were carried out in the wells of opaque microtiter plates by mixing 10 ul of extract with 65 ul of GUS assay buffer (50 mM sodium phosphate pH 7.0, 10 mM EDTA, 0.1% Triton X-100, 10 mM β-mercaptoethanol) containing 4-methyl umbelliferyl glucuronide […] at a final concentration of 2 mM in a total volume of 75 ul. The plate was incubated at 37° C. for 30 minutes and the reaction was stopped by the addition of 225 ul of 0.2 M sodium carbonate. The concentration of fluorescent indicator released was determined by reading the plate on a Flow Labs Fluoroskan II ELISA plate reader. Duplicate fluorescence values for each sample were averaged, and background fluorescence (reaction without MUG) was subtracted to obtain the concentration of MU for each sample. The amount of protein in each extract was determined using the bicinchoninic acid technique (BCA, Pierce Biochemicals) according to the manufacturer's recommendations except that protein extracts were pretreated with iodoacetamide (Sigma) to eliminate background signal caused by the reductant (β-mercaptoethanol) present in the extraction buffer. The specific activity was determined for each sample and was expressed in pmoles MU/mg protein/minute. For each tissue sample assayed from a particular time point following BTH application, the specific activity of the BTH-induced sample was divided by the specific activity of the pre-BTH treatment control sample, thus yielding the induction of GUS expression. (See Table I)

[2] = tested on: PR-1a/T7 polymerase x plastid T7/GUS plants (pPH110X6b x 4276P); experiment: GUS mRNA content of plants sprayed with BTH (Northern blot, ethidium bromide scan); format: in vivo, Nicotiana tabacum
Description: as §1
(§2) Total RNA was extracted from frozen tissue of BTH and wettable powder-sprayed control and PR-1a/T7 polymerase×plastid T7/GUS plants, and Northern blot analysis on 5 μg RNA samples was carried out as described (Ward et al. (1991) The Plant Cell 3, 1085-1094) using as a probe a 500 bp radiolabelled 5′ fragment of the GUS gene. […] Example C12 Determination of GUS protein content of transgenic plants In order to determine the amount of GUS present in the tissues of transgenic plants, chemiluminescent (Amersham) Western blot analysis was performed according to the manufacturer's instructions and Harlow and Lane (1988) Antibodies: A laboratory manual, Cold Spring Harbor Laboratory, Cold Spring Harbor, using GUS antisera purchased from Molecular Probes and purified GUS protein standards (Sigma). Proteins from frozen, ground leaf material harvested as above were solubilized by extraction in 50 mM Tris pH 8.0, 1 mM EDTA, 1 mM PTT, 1 mM AEBSP, and 1 mM DTT and 5 to 25 μg protein run on each lane of 10% polyacrylamide gels. GUS protein accumulation in the plastid transformed plants is sustained over 7-28 days and beyond, and is extraordinarily high (much higher than peak GUS accumulation for nuclear PR-1a/GUS), exceeding 20% of total protein by 28 days.

[3] = tested on: PR-1a/T7 polymerase x plastid T7/GUS plants; experiment: GUS protein content of plants after BTH induction (Western blot); format: in vivo, Nicotiana tabacum; details: plastid transformed plants
Description: as §1, with “above. […]” for “above.”

[4] = tested on: PR-1a/T7 polymerase x plastid T7/cellulase plants; experiment: E5 cellulase mRNA content of plants after BTH induction (Northern blot); format: in vivo, Nicotiana tabacum
Description: Homozygous NT-10× and NT-110N plants containing the PR-1a-T7 RNA Pol construct were used to pollinate homoplastidic Nt_pC8E5 and Nt_pC+E5 plastid transformant lines carrying the maternally inherited pC8E5 and pC+E5 cellulase constructs. The Nt_pC+E5×NT-110X or NT--110N, and Nt_pC8E5×NT-110X or NT110N F1 progeny (which were heterozygous for the PR-1/T7 polymerase nuclear expression cassette and homoplastidic for the T7/cellulase plastid expression cassette) were germinated on soil. Upon reaching a height of […], the plants were sprayed with the inducer compound BTH to elicit T7 Pol-regulated expression of the E5 cellulase gene that is localized to the plastids. […]
Total RNA was extracted from frozen tissue of BTH and wettable powder-sprayed control and PR-1a/7 polymerase×plastid T7/cellulase plants, and Northern blot analysis on 5 μg RNA samples was carried out as described (Ward et al. (1991) The Plant Cell 3, 1085-1094) using as a probe a radiolabelled DNA fragment containing the E5 cellulase coding sequence. Relative E5 cellulase mRNA accumulation at each time point was assessed by quantifying the radioactivity in bands hybridizing with the radiolabelled E5 cellulase probe in order to determine time courses of fold mRNA induction. […] Prior to induction, no cellulase mRNA is detected.

[5] = tested on: nuclear PR-1a/GUS transformants; experiment: GUS protein accumulation in nuclear PR-1a/GUS transformants after induction (Western blot); format: in vivo; details: nuclear PR1a/GUS transformants
Procedure: as §2

In the case of CSC(=O)c1cccc2nnsc12 [BTH, benzo(1,2,3)thiadiazole-7-carbothioic acid S-methyl ester], the “GUS activity (pmol MU/mg/min)” value ([1]; 0.3 days after BTH spray) was 434 pmol MU/mg/min, the “GUS activity (pmol MU/mg/min)” value ([1]; 1.0 days after BTH spray) was 14,516 pmol MU/mg/min and the “GUS activity (pmol MU/mg/min)” value ([1]; 2.0 days after BTH spray) was 230,031 pmol MU/mg/min. For the same molecule, the “GUS activity (pmol MU/mg/min)” value ([1]; 3.0 days after BTH spray) was 456,486 pmol MU/mg/min, the “GUS activity (pmol MU/mg/min)” value ([1]; 7.0 days after BTH spray) was 2,424,725 pmol MU/mg/min and the “GUS activity (pmol MU/mg/min)” value ([1]; 28.0 days after BTH spray) was 1,922,466 pmol MU/mg/min. The “% Total RNA (GUS RNA)” value ([2]; 0.3 days after BTH spray) was under 0.013%, the “% Total RNA (GUS RNA)” value ([2]; 1.0 days after BTH spray) was 0.108% and the “% Total RNA (GUS RNA)” value ([2]; 2.0 days after BTH spray) was 0.873%. For the same molecule, the “% Total RNA (GUS RNA)” value ([2]; 3.0 days after BTH spray) was 2.663%, the “% Total RNA (GUS RNA)” value ([2]; 7.0 days after BTH spray) was 7.745% and the “% Total RNA (GUS RNA)” value ([2]; 28.0 days after BTH spray) was 24.596%. For the same molecule, the “peak level of chemically inducible GUS RNA in the plastid, of total ethidium-stainable RNA” value ([2]; between 7 and 28 days after induction with BTH) was 14%, the “peak GUS RNA relative to peak chemically inducible GUS mRNA accumulation for nuclear PR-1a/GUS transformants” value ([2]; plastid vs nuclear PR-1a/GUS transformants) was “over 1000 fold” and the “GUS protein accumulation, of total protein” value ([3]; by 28 days) was “exceeding 20%”. For the same molecule, the “time of peak/sustained GUS protein accumulation” value ([3]; from induction) was 7 to 28 days, the “time of peak cellulase mRNA accumulation” value ([4]; after induction) was 14 days and the “E5 cellulase mRNA accumulation following induction” value ([4]; plant material of example C6, none detected prior to induction) was “significant cellulase mRNA accumulation”. The “GUS protein accumulation by 28 days” value ([5]; 28 days) was “declines to the limits of detection” and the “time of peak GUS protein accumulation” value ([5]; from induction) was “about 3 days”.

From patent publication US7838732B2, “Transgenic plants expressing a cellulase” (Syngenta Participations AG, priority 1996, dated 2010)
